Results from PubChem BioAssay (NCI).
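Five compound concentrations were applied to cells in 96-well plates for 48 hours; endpoints were derived by simple linear interpolation of the resulting dose-response curve. TGI: total growth inhibition.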

Tests used:
Assay in all cases: NCI tumour cell line growth inhibition, 48 h
786-0 renal = system: 786-0 renal
A498 renal = system: A498 renal
A549 NSCLC = system: A549 NSCLC
ACHN renal = system: ACHN renal
BT-549 breast = system: BT-549 breast
CAKI-1 renal = system: CAKI-1 renal
CCRF-CEM leukemia = system: CCRF-CEM leukemia
COLO 205 colon = system: COLO 205 colon
DU-145 prostate = system: DU-145 prostate
EKVX NSCLC = system: EKVX NSCLC
HCC-2998 colon = system: HCC-2998 colon
HCT-116 colon = system: HCT-116 colon
HCT-15 colon = system: HCT-15 colon
HL-60(TB) leukemia = system: HL-60(TB) leukemia
HOP-62 NSCLC = system: HOP-62 NSCLC
HOP-92 NSCLC = system: HOP-92 NSCLC
HS 578T breast = system: HS 578T breast
HT29 colon = system: HT29 colon
IGROV1 ovarian = system: IGROV1 ovarian
K-562 leukemia = system: K-562 leukemia
KM12 colon = system: KM12 colon
LOX IMVI melanoma = system: LOX IMVI melanoma
M14 melanoma = system: M14 melanoma
MALME-3M melanoma = system: MALME-3M melanoma
MCF7 breast = system: MCF7 breast
MDA-MB-231 breast = system: MDA-MB-231 breast
MDA-MB-435 = system: MDA-MB-435
MDA-N = system: MDA-N
MOLT-4 leukemia = system: MOLT-4 leukemia
NCI-H226 lung = system: NCI-H226 lung
NCI-H23 lung = system: NCI-H23 lung
NCI-H460 lung = system: NCI-H460 lung
NCI-H522 lung = system: NCI-H522 lung
NCI/ADR-RES ovarian = system: NCI/ADR-RES ovarian
OVCAR-3 ovarian = system: OVCAR-3 ovarian
OVCAR-4 ovarian = system: OVCAR-4 ovarian
OVCAR-5 ovarian = system: OVCAR-5 ovarian
OVCAR-8 ovarian = system: OVCAR-8 ovarian
PC-3 prostate = system: PC-3 prostate
RPMI-8226 leukemia = system: RPMI-8226 leukemia
RXF 393 renal = system: RXF 393 renal
SF-268 CNS = system: SF-268 CNS
SF-295 CNS = system: SF-295 CNS
SF-539 CNS = system: SF-539 CNS
SK-MEL-2 melanoma = system: SK-MEL-2 melanoma
SK-MEL-28 melanoma = system: SK-MEL-28 melanoma
SK-MEL-5 melanoma = system: SK-MEL-5 melanoma
SK-OV-3 ovarian = system: SK-OV-3 ovarian
SN12C renal = system: SN12C renal
SNB-19 CNS = system: SNB-19 CNS
SNB-75 CNS = system: SNB-75 CNS
SR leukemia = system: SR leukemia
SW-620 colon = system: SW-620 colon
T-47D breast = system: T-47D breast
TK-10 renal = system: TK-10 renal
U251 CNS = system: U251 CNS
UACC-257 melanoma = system: UACC-257 melanoma
UACC-62 melanoma = system: UACC-62 melanoma
UO-31 renal = system: UO-31 renal

Question: Which TGI (786-0 renal) does the source give for `COc1cc2c(cc1OC)C/C(=N\O)c1cc(OC)c(OC)cc1/C=C\2` here?
Answer: > 100 µM

Question: What about the TGI (A498 renal) of the same molecule?
Answer: > 100 µM

Question: What about the TGI (A549 NSCLC) of the same molecule?
Answer: > 100 µM

Question: What about the TGI (ACHN renal) of the same molecule?
Answer: > 100 µM

Question: What about the TGI (BT-549 breast) of the same molecule?
Answer: 97.1 µM

Question: What about the TGI (CAKI-1 renal) of the same molecule?
Answer: > 29.4 µM

Question: What about the TGI (CCRF-CEM leukemia) of the same molecule?
Answer: > 100 µM

Question: What about the TGI (COLO 205 colon) of the same molecule?
Answer: 28.7 µM

Question: What about the TGI (DU-145 prostate) of the same molecule?
Answer: > 64 µM

Question: What about the TGI (EKVX NSCLC) of the same molecule?
Answer: > 100 µM

Question: What about the TGI (HCC-2998 colon) of the same molecule?
Answer: 31.8 µM

Question: What about the TGI (HCT-116 colon) of the same molecule?
Answer: > 39.2 µM

Question: And the TGI (HCT-15 colon)?
Answer: > 100 µM

Question: And the TGI (HL-60(TB) leukemia)?
Answer: 19.5 µM

Question: And the TGI (HOP-62 NSCLC)?
Answer: > 27 µM

Question: And the TGI (HOP-92 NSCLC)?
Answer: > 100 µM

Question: What about the TGI (HS 578T breast) of the same molecule?
Answer: 15.1 µM

Question: What about the TGI (HT29 colon) of the same molecule?
Answer: 15.4 µM

Question: And the TGI (IGROV1 ovarian)?
Answer: 72.8 µM

Question: And the TGI (K-562 leukemia)?
Answer: > 100 µM

Question: What about the TGI (KM12 colon) of the same molecule?
Answer: 95.8 µM

Question: And the TGI (LOX IMVI melanoma)?
Answer: 25.6 µM

Question: And the TGI (M14 melanoma)?
Answer: 27.2 µM

Question: And the TGI (MALME-3M melanoma)?
Answer: 9.9 µM

Question: What about the TGI (MCF7 breast) of the same molecule?
Answer: > 96.4 µM

Question: And the TGI (MDA-MB-231 breast)?
Answer: > 29.3 µM

Question: What about the TGI (MDA-MB-435) of the same molecule?
Answer: 4.05 µM

Question: What about the TGI (MDA-N) of the same molecule?
Answer: > 100 µM

Question: And the TGI (MOLT-4 leukemia)?
Answer: > 85 µM

Question: And the TGI (NCI-H226 lung)?
Answer: 45.5 µM

Question: What about the TGI (NCI-H23 lung) of the same molecule?
Answer: > 100 µM

Question: What about the TGI (NCI-H460 lung) of the same molecule?
Answer: > 29.4 µM

Question: And the TGI (NCI-H522 lung)?
Answer: 4.8 µM

Question: What about the TGI (NCI/ADR-RES ovarian) of the same molecule?
Answer: 89.3 µM

Question: What about the TGI (OVCAR-3 ovarian) of the same molecule?
Answer: 17.3 µM

Question: And the TGI (OVCAR-4 ovarian)?
Answer: > 100 µM

Question: What about the TGI (OVCAR-5 ovarian) of the same molecule?
Answer: > 55.3 µM

Question: And the TGI (OVCAR-8 ovarian)?
Answer: 73.3 µM

Question: What about the TGI (PC-3 prostate) of the same molecule?
Answer: > 100 µM

Question: What about the TGI (RPMI-8226 leukemia) of the same molecule?
Answer: 66.9 µM

Question: And the TGI (RXF 393 renal)?
Answer: 38.4 µM

Question: And the TGI (SF-268 CNS)?
Answer: > 100 µM

Question: And the TGI (SF-295 CNS)?
Answer: > 61 µM

Question: What about the TGI (SF-539 CNS) of the same molecule?
Answer: 18 µM

Question: And the TGI (SK-MEL-2 melanoma)?
Answer: 44.6 µM

Question: And the TGI (SK-MEL-28 melanoma)?
Answer: > 45 µM

Question: What about the TGI (SK-MEL-5 melanoma) of the same molecule?
Answer: 8.26 µM

Question: And the TGI (SK-OV-3 ovarian)?
Answer: > 85.3 µM

Question: What about the TGI (SN12C renal) of the same molecule?
Answer: > 100 µM

Question: And the TGI (SNB-19 CNS)?
Answer: > 65.5 µM

Question: What about the TGI (SNB-75 CNS) of the same molecule?
Answer: 78.1 µM

Question: And the TGI (SR leukemia)?
Answer: > 50.8 µM

Question: And the TGI (SW-620 colon)?
Answer: > 90.6 µM

Question: What about the TGI (T-47D breast) of the same molecule?
Answer: > 84.3 µM

Question: And the TGI (TK-10 renal)?
Answer: > 72.6 µM

Question: And the TGI (U251 CNS)?
Answer: > 41.1 µM

Question: What about the TGI (UACC-257 melanoma) of the same molecule?
Answer: > 48.8 µM

Question: And the TGI (UACC-62 melanoma)?
Answer: > 58 µM

Question: And the TGI (UO-31 renal)?
Answer: > 69.7 µM

Question: How did the TGI (786-0 renal) turn out when `COc1ccc2cc(CNCCOCCOCCNCc3ccc4cc(OC)ccc4c3)ccc2c1` was run?
Answer: 2.19 µM

Question: And the TGI (A498 renal)?
Answer: 3.78 µM

Question: What about the TGI (A549 NSCLC) of the same molecule?
Answer: 3.12 µM

Question: What about the TGI (ACHN renal) of the same molecule?
Answer: 3.01 µM

Question: And the TGI (BT-549 breast)?
Answer: 3.59 µM

Question: What about the TGI (CAKI-1 renal) of the same molecule?
Answer: 3.22 µM

Question: What about the TGI (CCRF-CEM leukemia) of the same molecule?
Answer: 1.24 µM

Question: What about the TGI (COLO 205 colon) of the same molecule?
Answer: 0.346 µM

Question: And the TGI (DU-145 prostate)?
Answer: 3.15 µM

Question: And the TGI (EKVX NSCLC)?
Answer: 3.21 µM

Question: And the TGI (HCC-2998 colon)?
Answer: 0.319 µM

Question: What about the TGI (HCT-116 colon) of the same molecule?
Answer: 7.86 µM

Question: What about the TGI (HCT-15 colon) of the same molecule?
Answer: 1.63 µM

Question: What about the TGI (HL-60(TB) leukemia) of the same molecule?
Answer: 0.657 µM

Question: And the TGI (HOP-62 NSCLC)?
Answer: 3.87 µM

Question: And the TGI (HOP-92 NSCLC)?
Answer: 3.05 µM

Question: And the TGI (HS 578T breast)?
Answer: 3.46 µM

Question: And the TGI (HT29 colon)?
Answer: 0.394 µM

Question: What about the TGI (IGROV1 ovarian) of the same molecule?
Answer: 3.45 µM

Question: And the TGI (K-562 leukemia)?
Answer: 1.92 µM

Question: And the TGI (KM12 colon)?
Answer: 2.27 µM

Question: What about the TGI (LOX IMVI melanoma) of the same molecule?
Answer: 1.22 µM

Question: What about the TGI (M14 melanoma) of the same molecule?
Answer: 0.687 µM

Question: And the TGI (MALME-3M melanoma)?
Answer: 2.83 µM

Question: What about the TGI (MCF7 breast) of the same molecule?
Answer: 2.5 µM

Question: And the TGI (MDA-MB-231 breast)?
Answer: 2.91 µM

Question: And the TGI (MDA-MB-435)?
Answer: 1.21 µM

Question: And the TGI (MDA-N)?
Answer: 2.35 µM

Question: And the TGI (MOLT-4 leukemia)?
Answer: 2.44 µM

Question: What about the TGI (NCI-H226 lung) of the same molecule?
Answer: 3.09 µM

Question: And the TGI (NCI-H23 lung)?
Answer: 3.02 µM

Question: What about the TGI (NCI-H460 lung) of the same molecule?
Answer: 1.51 µM

Question: What about the TGI (NCI-H522 lung) of the same molecule?
Answer: 3.49 µM

Question: What about the TGI (NCI/ADR-RES ovarian) of the same molecule?
Answer: 3.02 µM

Question: And the TGI (OVCAR-3 ovarian)?
Answer: 3.54 µM

Question: And the TGI (OVCAR-4 ovarian)?
Answer: 4.07 µM

Question: What about the TGI (OVCAR-5 ovarian) of the same molecule?
Answer: 3.89 µM

Question: And the TGI (OVCAR-8 ovarian)?
Answer: 2.97 µM

Question: And the TGI (PC-3 prostate)?
Answer: 3.16 µM

Question: What about the TGI (RPMI-8226 leukemia) of the same molecule?
Answer: 2.03 µM

Question: And the TGI (RXF 393 renal)?
Answer: 3.18 µM

Question: And the TGI (SF-268 CNS)?
Answer: 2.99 µM

Question: And the TGI (SF-295 CNS)?
Answer: 2.59 µM

Question: And the TGI (SF-539 CNS)?
Answer: 3.03 µM

Question: What about the TGI (SK-MEL-2 melanoma) of the same molecule?
Answer: 3.18 µM

Question: What about the TGI (SK-MEL-28 melanoma) of the same molecule?
Answer: 2.69 µM

Question: And the TGI (SK-MEL-5 melanoma)?
Answer: 1.81 µM

Question: What about the TGI (SK-OV-3 ovarian) of the same molecule?
Answer: 3.28 µM

Question: What about the TGI (SN12C renal) of the same molecule?
Answer: 3.85 µM

Question: And the TGI (SNB-19 CNS)?
Answer: 3.09 µM

Question: What about the TGI (SNB-75 CNS) of the same molecule?
Answer: 3.03 µM

Question: And the TGI (SR leukemia)?
Answer: 2.29 µM

Question: What about the TGI (SW-620 colon) of the same molecule?
Answer: 3.69 µM

Question: What about the TGI (T-47D breast) of the same molecule?
Answer: 3.22 µM

Question: What about the TGI (TK-10 renal) of the same molecule?
Answer: 2.98 µM

Question: And the TGI (U251 CNS)?
Answer: 8.46 µM

Question: And the TGI (UACC-257 melanoma)?
Answer: 3.18 µM

Question: What about the TGI (UACC-62 melanoma) of the same molecule?
Answer: 3.38 µM

Question: And the TGI (UO-31 renal)?
Answer: 2.61 µM
